Source: patent US11414387B2, “Oxoacridinyl acetic acid derivatives and methods of use” (Stingthera, Inc., priority 2017, dated 2022)

Columns and labels:
mSTING = mSTING (Mus musculus, UniProt Q3TBT3); test: Radiometric filtration binding competition assay, mSTING
Experimental: (§1) A radiometric filtration binding competition assay was performed to quantify the binding affinity of compounds of the present application for the human or mouse STING protein, or associated HAQ human isoform. […] The resulting dose response was fit by non-linear regression to determine an IC50 value, from which a Ki value for each compound was extrapolated.
(§2) The resulting complexes were then filtered, dried, and scintillation fluid was added and the remaining radio signal was measured to determine the degree of compound ligand inhibition. This assay format was optimized for both the WT and HAQ isoforms of the human protein and the mouse orthologue protein.
(§3) Probe Concentration: Minimum concentration that achieved max assay window • g. Assay Format: Scintillation Proximity Bead or Filtration Binding Plate • h. […] Assay incubation times for successive incubation steps
(§4) WT-hSWAT: WT_FBA_HIS-SUMO-hSWAT IC50 (μM) (“WT”=Wild-type); HAQ-hSWAT: HAQ_FBA_HIS-SUMO-hSWAT IC50 (μM) (“HAQ”=human HAQ allele of STING protein); and WT-mSWAT: MOUSE_FBA_HIS-SUMO-mnSWAT IC50 (μM) which is the mouse isoform of STING protein.

hSTING-WT = hSTING-WT (Homo sapiens (Human), UniProt Q86WV6, H232R); test: Radiometric filtration binding competition assay, hSTING-WT
Experimental: as §1, §2, §3, §4

hSTING-HAQ [1] = target: T1, hSTING-HAQ (Homo sapiens (Human), UniProt Q86WV6, G230A/H232R/R293Q); test: Radiometric filtration binding competition assay, hSTING-HAQ
T1 sequence (Q86WV6 140-379 G230A/H232R/R293Q): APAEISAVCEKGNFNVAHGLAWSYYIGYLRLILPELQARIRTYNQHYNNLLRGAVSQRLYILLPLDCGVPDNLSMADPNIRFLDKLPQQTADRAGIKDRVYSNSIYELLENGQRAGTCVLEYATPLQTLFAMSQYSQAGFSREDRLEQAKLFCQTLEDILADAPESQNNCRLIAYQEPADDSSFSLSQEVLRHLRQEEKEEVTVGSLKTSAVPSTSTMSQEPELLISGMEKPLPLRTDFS
Experimental: as §1, §2, §3, §4

hSTING-R232 = hSTING-R232 (Homo sapiens (Human), UniProt Q86WV6, H232R); test: STING differential scanning fluorimetry (DSF) assay, WT human STING; conditions: WT (R232) human STING aa140-379, net shift in melting temperature
Chain of hSTING-R232 (Q86WV6 140-379 H232R): as the sequence (Q86WV6 140-379 G230A/H232R/R293Q) above, with A91G, Q154R counted along it
Experimental: (§5) A STING DSF assay was performed to determine protein thermostability shift in response to small molecule ligand binding. A STING thermostability shift assay based on differential scanning fluorimetry was used to measure (1) the net shift in melting temperature (ΔTm)between the apo and ligand-bound states of the STING protein and (2) the concentration of the thermal denaturation transition (EC50) as a surrogate measure of binding affinity (K). […] Protein in assay buffer was transferred to a 384 well plate and incubated with the hydrophobic fluorescent dye SYBR Orange. A temperature ramp was applied to the plate and the resulting dye fluorescence was plotted as a function of temperature. The first derivative of this function (dF/dT) was then used to extrapolate the melting temperature of the protein at various concentrations of compound and determine the thermal denaturation profile of a protein/compound complex.
(§6) • 1. Protein construct (affinity tag removal vs SUMO-fusion construct) • 2. Protein concentration • 3. Dye concentration • 4. Buffer • 5. Thermal ramp velocity • 6. DMSO tolerance • 7. Compound titration parameters • 8. […] 5 μM purified Target STING Protein • 3. 8 μM Sypro Orange Dye • 4. Buffer: 100 mM NaCl, 30 mM HEPES, pH 7.5 • 5. Thermal Ramp: 0.5° C./min • 6. <1% DMSO • 7. 11 point, 2 fold dilution, duplicate, 300 μM high concentrations • 8.

hSTING-HAQ [2] = target: T1, hSTING-HAQ; test: STING differential scanning fluorimetry (DSF) assay, HAQ human STING; conditions: HAQ human STING aa140-379, net shift in melting temperature
Experimental: as §5, §6

STING protein = STING protein (Homo sapiens (Human), UniProt Q86WV6, H232R); test: Cell based reporter assay of IRF activation (IRF-luciferase), THP1-dual-KI R232; conditions: read-out: THP1-dual-KI R232_IRF(Luciferase)_Activity Maximum measured (%)
Chain of STING protein (Q86WV6 whole entry H232R): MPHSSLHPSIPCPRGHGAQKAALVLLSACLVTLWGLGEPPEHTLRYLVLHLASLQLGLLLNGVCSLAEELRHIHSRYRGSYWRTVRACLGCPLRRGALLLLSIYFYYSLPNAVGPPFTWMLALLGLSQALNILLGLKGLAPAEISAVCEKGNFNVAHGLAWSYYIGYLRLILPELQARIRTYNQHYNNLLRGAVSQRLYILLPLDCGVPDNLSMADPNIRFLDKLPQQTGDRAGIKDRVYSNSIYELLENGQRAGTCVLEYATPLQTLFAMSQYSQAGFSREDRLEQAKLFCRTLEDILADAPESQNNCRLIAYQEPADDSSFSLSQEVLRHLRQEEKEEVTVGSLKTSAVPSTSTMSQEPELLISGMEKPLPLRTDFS

mSTING-R232 = mSTING-R232 (Mus musculus, UniProt Q3TBT3); test: STING differential scanning fluorimetry (DSF) assay, mouse STING; conditions: net shift in melting temperature
hSTING-CTD = hSTING-CTD (Homo sapiens (Human), UniProt Q86WV6); test: Human STING protein FP competition concentration response assay; type: binding
Chain of hSTING-CTD (Q86WV6 135-379): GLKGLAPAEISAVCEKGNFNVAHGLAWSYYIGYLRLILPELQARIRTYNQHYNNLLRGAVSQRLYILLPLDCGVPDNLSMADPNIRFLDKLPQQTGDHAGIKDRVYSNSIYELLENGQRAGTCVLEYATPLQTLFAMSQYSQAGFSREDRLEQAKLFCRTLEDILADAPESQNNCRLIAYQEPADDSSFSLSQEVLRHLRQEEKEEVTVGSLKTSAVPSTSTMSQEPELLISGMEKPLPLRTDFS
Summary of the method: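 Compound, serially diluted 2-fold over 14 concentrations, competes with 2′-Fluo-AHC-c-di-GMP (30 nM) for binding to hSTING-CTD (10 uM) in PBS with 3.35% DMSO at room temperature for 10-20 min. Anisotropy change gives IC50 by sigmoidal four-parameter regression.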

mSTING-CTD = mSTING-CTD (Mus musculus (Mouse), UniProt Q3TBT3); test: Mouse STING protein FP competition concentration response assay; type: binding
Chain of mSTING-CTD (Q3TBT3 134-378): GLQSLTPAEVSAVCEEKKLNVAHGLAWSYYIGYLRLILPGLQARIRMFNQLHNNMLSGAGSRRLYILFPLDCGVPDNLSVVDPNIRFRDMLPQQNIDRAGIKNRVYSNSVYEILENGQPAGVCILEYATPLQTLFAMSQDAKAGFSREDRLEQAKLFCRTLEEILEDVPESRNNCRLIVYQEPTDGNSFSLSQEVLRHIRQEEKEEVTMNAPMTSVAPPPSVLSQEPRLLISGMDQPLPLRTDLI
Experimental: A validated STING ligand, such as c-di-GMP, which is labeled with a read-out signal (e.g., a fluorescence signal such as fluorescein), is mixed with STING-CTD (e.g., mouse STING-CTD or human STING-CTD) with or without the presence of a compound of the present application. Changes in the read-out signal are measured (e.g., by fluorescence anisotropy) to determine the binding of the compound to STING-CTD.
Fluorescein labeled c-di-GMP was mixed with mSTING-CTD with or without the presence of a compound of the present application in PBS in black 384-well plates (10 μL per well). The fluorescence anisotropy was determined on a PerkinElmer EnVisions multi-mode plate reader. The plate can be read immediately after mixing the reagents or after a few hours without change of signals.
• 1) 6×his-sumo-mSTING (Supplier: HDB) • 2) 2′-Fluo-AHC-c-di GMP (BIOLOG #F009) • 3) 23-cGAMP (BIOLOG #C161) • 4) DMXAA (InvivoGen #tlrl-dmx) • 5) DMSO (Sigma. #D5879-100 mL) • 6) 10×PBS(HDB #MCP-020) • 7) Assay plate, 384-well black plate, solid black bottom (Greiner #784076) • 8) Compound dilution intermediate plate, 384 LDV plate (Labcyte #LP-0200) • 9) Liquid handler, ECHO550 (Labcyte) • 10) Liquid handler, Bravo (Aglient) • 11) Reader, Envision (PerkinElmer) • 12) Centrifuge (Eppendorf) • 13) Multichannel Pipette (Raining) • 14) 10 ml Reservoir (Corning) • 15) 15 ml centrifuge tube (Corning) • 16) Adhesive Plate seals (BioRad) Compound Preparation • a) Containers of each compound were centrifuged at 1000 rpm for 5 min. • b) Compounds were dissolved in DMSO at 30 mM. • c) Compounds were sufficiently vortexed, and centrifuged at 1000 rpm for 1 min. • d) 16 uL of the compound solution was transferred into a LDV Compound Plate. • e) 2-fold serial dilutions of the compound solution were made with DMSO, and 14 concentrations were made in the 384-well LDV Compound Plate. • f) The LDV plate was spun at 1000 rpm for 60 sec and sealed with foil (stored at −20° C. if not used immediately). • g) 335 nL of each compound from the LDV Compound Plate was transferred to Assay Plate (ECHO550). Probe Preparation • a) 200 uM probe stock (2′-Fluo-AHC-c-diGMP) was diluted by dd2O to 6 uM working concentration. • b) 10-12 uL 6 uM working solution of probe was transferred into the LDV plate. • c) 50 nL per well 6 uM working solution of probe was transferred from the LDV plate to each well of the empty Assay Plate (Greiner 784076) by ECHO550 Buffer mode. • d) Probe final concentration was 30 nM when assay system was 10 uL. • e) The Assay Plate was spun at 1000 rpm for 1 min. Compound Addition • a) After the LDV Compound Plate was prepared, 100 nL compound (ECHO550 DMSO mode) was transferred from the LDV Compound Plate into the Assay Plate (Greiner 784076) containing 50 nL probe in each well according to the Assay Plate layout. • b) DMSO final concentration was 1% when assay system was 10 uL. • c) The Assay Plate was spun at 1000 rpm for 1 min. Protein Addition • a) Aliquot of 6×his-sumo-mSTING protein was thawed on ice, briefly to generate uniform solution. • b) 66 uM stock protein was diluted in 1×PBS assay buffer to generate 8 uM final solutions. • c) For test compound and ZPE wells, 10 μL per well of 8 uM protein solutions was added into the Assay Plate containing both the probe and test compounds or DMSO using multichannel pipette. • d) For HPE wells, 10 µL/well of 1×PBS assay buffer instead of protein was added into the Assay Plate containing both the probe and DMSO using multichannel pipette. • e) The Assay Plate was spun at 1000 rpm for 1 min. • f) The Assay Plate was incubated at r.t. for 10-20 min.
The EnVision plate reader was used to record the FA value of each well immediately after mixing the reagents or after a few hours without change of signals.
The raw data and calculated data (Fluorescence anisotropy (FA)) was exported from the EnVision reader. […]

Chain of hSTING-WT (Q86WV6 140-379 H232R): as the sequence (Q86WV6 140-379 G230A/H232R/R293Q) above, with A91G, Q154R counted along it

Compound | IC50 (mSTING) [µM] | IC50 (hSTING-WT) [µM] | IC50 (hSTING-HAQ [1]) [µM] | WT_DSF_hSWAT Tm Shift (° C.) (hSTING-R232) | HAQ_DSF_hSWAT Tm Shift (° C.) (hSTING-HAQ [2]) | Emax (STING protein) [%] | MOUSE DSF_6xHIS-SUMO Tm Shift (° C.) (mSTING-R232) | IC50 (hSTING-CTD) [µM] | IC50 (mSTING-CTD) [µM]
COc1c(Cl)ccc2c(=O)c3ccc(C(C)(C)C)cc3n(CC(=O)O)c12 [Compound 204] | < 20 | < 20 | 20 to 100 | D (“D” > 7° C.) | D (“D” > 7° C.) | > 50 |  |  | 
CSc1c(Cl)ccc2c(=O)c3ccc(C(C)(C)C)cc3n(CC(=O)O)c12 [Compound 215] | < 20 | < 20 | < 20 | D (“D” > 7° C.) | D (“D” > 7° C.) | > 50 |  |  | 
O=C(O)Cn1c2cc(-c3ccc(O)cc3)ccc2c(=O)c2ccc(Cl)c(Cl)c21 [Compound 223] | < 20 | 20 to 100 | 20 to 100 | C (“C” = 2-7° C,) | D (“D” > 7° C.) | < 5 |  |  | 
COc1c(Cl)ccc2c(=O)c3ccc(C4=CCCCC4)cc3n(CC(=O)O)c12 [Compound 219] | < 20 | < 20 | 20 to 100 | D (“D” > 7° C.) |  |  |  |  | 
CC1(C)CCC(c2ccc3c(=O)c4ccc(Cl)c(Cl)c4n(CC(=O)O)c3c2)CC1 [Compound 160] |  | 20 to 100 |  | B (“B” = 0-2° C.) | B (“B” = 0-2° C.) | 5 to 25 | D (“D” > 15° C.) |  | 
O=C(O)Cn1c2cc(-c3cccc(C(F)(F)F)c3)ccc2c(=O)c2ccc(Cl)c(Cl)c21 [Compound 161] |  | 20 to 100 |  | B (“B” = 0-2° C.) | B (“B” = 0-2° C.) | < 5 | D (“D” > 15° C.) |  | 
CSc1c(Cl)ccc2c(=O)c3ccccc3n(CC(=O)O)c12 [Compound 212] | 100 to 300 | 100 to 300 | > 300 | C (“C” = 2-7° C,) |  |  |  |  | 
CC(C)c1ccc2c(=O)c3ccc(Cl)c(Br)c3n(CC(=O)NS(C)(=O)=O)c2c1 [Compound 350] |  | 100 to 300 |  | C (“C” = 2-7° C,) | C (“C” = 2-7° C,) | < 5 |  |  | 
C#Cc1c(Cl)ccc2c(=O)c3ccccc3n(CC(=O)O)c12 [Compound 197] |  | > 300 | > 300 | C (“C” = 2-7° C,) |  | < 5 |  |  | 
O=C(O)Cn1c2cc(Nc3ccccc3)ccc2c(=O)c2ccc(Cl)c(Cl)c21 [Compound 181] | < 20 | < 20 | 20 to 100 | D (“D” > 7° C.) |  | > 50 | D (“D” > 15° C.) |  | 
O=C(O)Cn1c2ccccc2c(=O)c2ccc(Cl)c(Cl)c21 [Compound 13] | > 300 | > 300 |  | B (“B” = 0-2° C.) |  |  | C (“C” = 5-15° C.) | 100 to 500 | 10 to 50
Cc1ccc(S(=O)(=O)NC(=O)Cn2c3cc(C(C)C)ccc3c(=O)c3ccc(Cl)c(Cl)c32)cc1 [Compound 351] |  | 20 to 100 |  | A (“A” < 0° C.) | A (“A” < 0° C.) | < 5 |  |  | 
Cc1cccc2c(=O)c3ccccc3n(CC(=O)O)c12 [Compound 7] |  |  |  |  |  |  |  | > 1000 | 10 to 50
O=C(O)Cn1c2cc(Nc3ccc(F)cc3F)ccc2c(=O)c2ccc(Cl)c(Cl)c21 [Compound 221] |  | < 20 | 20 to 100 | D (“D” > 7° C.) | D (“D” > 7° C.) | > 50 |  |  | 
Cc1cccc(-c2ccc3c(c2)c(=O)c2ccc(Cl)c(Cl)c2n3CC(=O)O)c1 [Compound 68] |  |  |  |  |  |  |  | < 100 | 10 to 50
O=C(O)Cn1c2ccccc2c(=O)c2cc(C#Cc3ccccc3)ccc21 [Compound 22] |  |  |  |  |  |  |  | 500 to 1000 | 10 to 50
Cc1ccc2c(=O)c3ccccc3n(CC(=O)O)c2c1C [Compound 99] |  |  |  |  |  |  |  | 500 to 1000 | 50 to 100
O=C(O)Cn1c2cc(C3CCCC3)ccc2c(=O)c2ccc(Cl)c(Cl)c21 [Compound 113] | < 20 | 20 to 100 |  | C (“C” = 2-7° C,) | C (“C” = 2-7° C,) | 5 to 25 | D (“D” > 15° C.) |  | 
Cc1ccc2c(=O)c3ccc(Br)cc3n(CC(=O)O)c2c1 [Compound 53] |  |  |  |  |  |  |  | 100 to 500 | 10 to 50
CC(C)c1ccc2c(=O)c3ccc(Cl)c(C(F)(F)F)c3n(CC(=O)O)c2c1 [Compound 192] | 100 to 300 | 20 to 100 | 20 to 100 | A (“A” < 0° C.) |  | < 5 | B (“B” = 0-5° C.) |  | 
Cc1ccc(-c2ccc3c(=O)c4ccc(Cl)c(Cl)c4n(CC(=O)O)c3c2)cc1Cl [Compound 164] |  | 20 to 100 |  | B (“B” = 0-2° C.) | B (“B” = 0-2° C.) |  | D (“D” > 15° C.) |  | 
O=C(O)Cn1c2cc(-c3ccccc3)ccc2c(=O)c2ccc(Cl)c(Br)c21 [Compound 177] | 20 to 100 | 20 to 100 | 100 to 300 | C (“C” = 2-7° C,) |  | < 5 |  |  | 
O=C(O)Cn1c2cc(Nc3ncccn3)ccc2c(=O)c2ccc(Cl)c(Cl)c21 [Compound 216] | < 20 | 20 to 100 | 20 to 100 | C (“C” = 2-7° C,) |  | > 50 | D (“D” > 15° C.) |  | 
Cc1c(CCc2ccccc2)ccc2c(=O)c3ccccc3n(CC(=O)O)c12 [Compound 27] |  |  |  |  |  |  |  | > 1000 | 50 to 100
